Measurements as given in article PMC8450341 (Frontiers in Physiology, 2021).
Entries after “also recorded” stand apart in the source; their conditions may differ.

What was measured:
HDAC1 = assay: Immunoblotting of HDAC abundance in RV and lung homogenates; assay type: in vivo, bovine calf; conditions: vorinostat over initial 5 days of hypoxia, measured at end of 14 days hypoxic exposure, vs untreated PH
Protocol: At the conclusion of the study period, calves were deeply anesthetized and euthanized. Tissue samples from right ventricle free wall and distal lung parenchyma were snap frozen in liquid nitrogen for laboratory analysis. RNA isolation and quantitative PCR were performed as described previously ([Frid et al., 2009]). mRNA abundance was quantitated relative to HPRT by the delta Ct method. The following primers were used (5′–3′). […] TCCA; Osteopontin (SPPA), Fwd:[…]; Hypoxanthine ribosyl transferase (HPRT), Fwd:[…], Rev:[…].
Procedures for immunoblotting and densitometry were performed as described previously ([Li et al., 2011]). HDAC antibodies were obtained from Cell Signaling Technology (HDAC1, #5356; HDAC5, #20458).
(A) Immunoblotting HDAC abundance.

normoxic control calves [1] = assay: Echocardiography in normoxic vorinostat-treated control calves; assay type: in vivo, bovine calf
Text: (§1) The bovine calf hypoxia model of PH previously reported ([Stenmark et al., 1987]; [Lemler et al., 2000]; [Bartels et al., 2016]) consistently produces significant pulmonary hypertension (mean PAP > 100 mmHg) and subsequent tissue changes on post-mortem examination ([Stenmark et al., 1987]). Animals display blood gas PaO2 and PaCO2 values consistent to severe hypoxia and PH ([Stenmark et al., 1987]; [Lemler et al., 2000]). Male Holstein dairy calves at 7 days of age (45–50 kg) were sourced from a local dairy farm. This study utilized a case comparison design. […] Hypoxic calves (Groups 1 and 2) were exposed to hypobaric hypoxia at simulated elevation of 10,000 feet for 48–72 h to allow acclimation then exposed to hypobaric hypoxia at the study condition of 15,000 feet simulated elevation (PB = 430 mmHg, Hypo-Hyperbaric Chamber Facility, Colorado State University Department of Physiology). The standard exposure interval was 14 days at this elevation. Control normoxic calves remained at ambient Fort Collins pressure (4,950 feet PB = 630 mmHg).
(§2) This dosing regimen was selected to minimize adverse effects based on guidelines for human pediatric patients (Lia Gore MD, Center for Cancer and Blood Disorders, Children’s Hospital Colorado, personal communication.) Group 2 calves received no drug treatment. At this age, the calf digestive system has not matured and the abomasum functions as the sole stomach similar to humans.
Echocardiography was utilized for non-invasive sequential assessment of cardiopulmonary function as described previously ([Lemler et al., 2000]; [Bartels et al., 2016]). […] The progression of pulmonary hypertension was evaluated by sequential echocardiography at the study condition (15,000 feet or normoxia) on study days 4, 8 and terminal day 14. Parasternal long and short axis recordings were obtained over 3–4 cardiac cycles, together with M-mode traces as indicated, using GE Echo PACS (General Electric, Chicago, IL, United States) or MicroDicom^1 software. Echocardiographic findings consistent with PH (abnormal RV size and function), or interventricular septum abnormalities including abnormal motion or flattening were evaluated ([Boon, 2011]). Septal motion and flattening were further quantitated by eccentricity index EI on short-axis views with EchoPACS. Tricuspid or mitral valve regurgitation was scored qualitatively as trace, mild, moderate or severe. Global RV function was assessed qualitatively. When RV images on long-axis included the entire chamber, RV fractional area change (FAC) was calculated with EchoPACS. RV fractional shortening was measured from M-mode recordings using MicroDicom. Calves were monitored following each non-terminal echo procedure for recovery including standing and interacting normally, and normal milk intake.

[2] = Serum pharmacokinetics after single oral dose in normoxic calves
Protocol: Pharmacokinetic parameters were calculated by a non-compartmental model using Phoenix WinNonlin v8.1 ([Wagner, 1993]).

[3] = system: calves with hypoxia-induced pulmonary hypertension; assay: Hemodynamics by right heart catheterization, hypoxic calf; assay type: in vivo, bovine calf
Text: as §1, §2
(§3) Standard measurements of PAP and cardiac output were performed by right heart catheterization concurrent with the final echo in both the two normoxic and two hypoxic calves on study day 14 as described previously ([Stenmark et al., 1987]; [Lemler et al., 2000]).
(§4) Data were obtained from right heart catheterization as described in Materials and Methods. Standard units: Pressure, mm Hg; Cardiac output, L/min; PA, pulmonary artery.

[4] = cited from earlier work
[5] = set-up: method as in Fraczek et al., 2013; conditions: rats, oral; ref Fraczek et al., 2013; cited from earlier work
normoxic control calves [6] = assay: Hemodynamics by right heart catheterization, normoxic calves; assay type: in vivo, bovine calf
Text: as §1, §2, §3, §4

bovine PH-fibs = system: bovine PH-fibs; set-up: method as in Li et al., 2011; conditions: ref Li et al., 2011; cited from earlier work
[7] = single oral dose, four normoxic calves
[8] = Hypoxic vorinostat treated calf, study day 14
[9] = vorinostat-treated PH calf, day 14
[10] = Normoxic vorinostat treated #1, study day 14
[11] = Normoxic vorinostat treated #2, study day 14

With `O=C(CCCCCCC(=O)Nc1ccccc1)NO` [vorinostat, suberanilohydroxamic acid] the “expression of HDAC1 in both lung and RV” value (HDAC1) was “tended to decrease”, the “RV Fractional area change (FAC)” value (normoxic control calves [1]; Normoxic #2 calf, vorinostat administration, Study Day 14) was 50.9% and the adverse cardiac effects (normoxic control calves [1]; based on echo and hemodynamic criteria) was “no evidence for adverse cardiac effects”. For the same molecule, the RV fractional shortening (normoxic control calves [1]; control (normoxic vorinostat-treated) calf, day 14, M-mode) was 50%, the “echocardiographic evidence of negative impacts on cardiac function” value (normoxic control calves [1]; control normoxic calves, vorinostat treatment) was “not associated with echocardiographic evidence of negative impacts on cardiac function” and the “time until serum vorinostat returns to undetectable levels” value ([2]; after single oral administration) was ≤ 24 h. The “integrated area under the concentration × time curve” value [2, 7] was ~1,500 nM•h, the peak serum concentration [2, 7] was ~400 nM and the “time to peak serum concentration” value [2, 7] was ~4 h. The “Cardiac Output” value [3, 8] was 5.5 L/min, the “Mean PA Pressure” value [3, 8] was 97.6 mm Hg and the “PA Pulse Pressure” value [3, 8] was 38.9 mm Hg. The “Systolic PA Pressure” value [3, 8] was 118.5 mm Hg, the “PA pulse pressure compared to untreated hypoxic calf” value [3, 9] was “tended toward reduced; also recorded: substantially reduced” and the “PA systolic pressure compared to untreated hypoxic calf” value [3, 9] was “tended toward reduced; also recorded: slightly reduced”. For the same molecule, the “cardiac output compared to untreated hypoxic calf” value [3, 9] was “increased; also recorded: increasing”, the “mean PA pressure compared to untreated hypoxic calf” value [3, 9] was “similar; also recorded: did not lower” and the aqueous solubility [4] was “poor”. For the same molecule, the bioavailability [5] was 2%, the “Cardiac Output” value (normoxic control calves [6]; [10]) was 4.4 L/min and the “Mean PA Pressure” value (normoxic control calves [6]; [10]) was 25.1 mm Hg. For the same molecule, the “PA Pulse Pressure” value (normoxic control calves [6]; [10]) was 17.6 mm Hg, the “Systolic PA Pressure” value (normoxic control calves [6]; [10]) was 34.0 mm Hg and the “Cardiac Output” value (normoxic control calves [6]; [11]) was 5.1 L/min. For the same molecule, the “Mean PA Pressure” value (normoxic control calves [6]; [11]) was 19.4 mm Hg, the “PA Pulse Pressure” value (normoxic control calves [6]; [11]) was 14.5 mm Hg and the “Systolic PA Pressure” value (normoxic control calves [6]; [11]) was 27.1 mm Hg. For the same molecule, the “effect on hemodynamic parameters in normoxic calves” value (normoxic control calves [6]; compared to the authors' previous studies) was “did not affect” and the activated fibroblast phenotype (bovine PH-fibs) was “reversed”.
